Data taken from US20080269162A1, “Novel Medicaments for Anti-Retroviral Treatments” (priority 2006, published 2008).
Several values for one entry are separate records, joined by “and”; a condition that tells them apart may be missing. Equal values may be shown once.

Legend:
CEM cells = test: In vitro cytotoxicity, number of CEM cells
RT of the NDK virus = target: T1, RT of the NDK virus (Human immunodeficiency virus type 1 group M subtype D, UniProt P18802); test: Direct inhibitory action on RT of the NDK virus; format: biochemical, HIV; conditions: viral concentration corresponding to RT activity of 81,000 dpm, FIG. 9
T1 construct: host or cells: virus preparation (native virion RT)
Excerpt: (§1) In order to perform these measurements, the method described in detail hereinbefore was followed (Example 2).

RT of the PIC CH virus = test: Direct inhibitory action on RT of the PIC CH virus; format: biochemical, HIV; conditions: viral concentration corresponding to RT activity of 105,000 dpm, FIG. 8
Excerpt: as §1

NDK virus = test: Number of syncitia in MT4 cell culture infected by NDK virus; format: cell-based, HIV; set-up: key to Number of Syncitia in the Culture (wells), J3 / Number of Syncitia in the Culture (wells), J4 / Number of Syncitia in the Culture (wells), J5 / Number of Syncitia in the Culture (wells), J6: the absence of syncitia is indicated by a minus (−) sign; the (+), +, ++, ++T signs indicate an increasing number of syncitia in each well; the (+), +, ++, ++T signs indicate an increasing number of syncitia in each well; the (+), +, ++, ++T signs indicate an increasing number of syncitia in each well; the (+), +, ++, ++T signs indicate an increasing number of syncitia in each well; The indication “T” indicates the death of the cells; conditions: 10 μg/mL; for Number of Syncitia in the Culture (wells), J3: day 3; for Number of Syncitia in the Culture (wells), J4: day 4; for Number of Syncitia in the Culture (wells), J5: day 5; for Number of Syncitia in the Culture (wells), J6: day 6
Experimental: Then infection of the cells was carried out by adding to each well, with the exception of those wells being used as control cells, 50 μL of previously titrated virus dilution.
After an additional hour of incubation, the plate was centrifuged and the supernatant containing the residual virus was discarded.
After 3 days of culture, the cells were diluted to half and the syncitia were observed using the inverse microscope from day 3 to day 7 after having been placed in suspension.
In the third case, the MT4 cell culture was preincubated for one hour at 37° C., then the cells were infected, the whole was subjected to incubation for one hour at 37° C., then to centrifugation with the elimination of the supernatant containing the virus that had not penetrated into the cells.
In each of the four types of experiments that have just been described, and as previously indicated, the cells were diluted to half after three days of culture and then the syncitia were observed using the inverted microscope from day 3 to day 7.
In the experiments described in greater detail hereinafter, the absence of syncitia is indicated by a minus (−) sign and the (+), +, ++, ++T signs indicate an increasing number of syncitia in each well.
The indication “T” indicates the death of the cells.

RT of the UG92029 virus = test: Direct inhibitory action on RT of the UG92029 virus; format: biochemical, HIV; conditions: viral concentration corresponding to RT activity of 220,000 dpm, FIG. 7
Excerpt: as §1

[1] = Continuous, before, during and after infection

Substance: Dextran sulphate
- Number of CEM cells (CEM cells; Day 1, 125 μg/mL): 500000 mL⁻¹ and 900000 mL⁻¹
- Number of CEM cells (CEM cells; Day 1, 250 μg/mL): 500000 mL⁻¹ and 900000 mL⁻¹
- Number of CEM cells (CEM cells; Day 1, 1000 μg/mL): 800000 mL⁻¹ and 500000 mL⁻¹
- Number of CEM cells (CEM cells; Day 2, 125 μg/mL): 1.5e+06 mL⁻¹ and 1e+06 mL⁻¹
- Number of CEM cells (CEM cells; Day 2, 250 μg/mL): 1.3e+06 mL⁻¹ and 1.4e+06 mL⁻¹
- Number of CEM cells (CEM cells; Day 2, 500 μg/mL): 1.3e+06 mL⁻¹ and 1.7e+06 mL⁻¹
- Number of CEM cells (CEM cells; Day 2, 1000 μg/mL): 1.3e+06 mL⁻¹ and 1.7e+06 mL⁻¹
- Number of CEM cells (CEM cells; Day 3, 125 μg/mL): 2.3e+06 mL⁻¹ and 2.1e+06 mL⁻¹
- Number of CEM cells (CEM cells; Day 3, 250 μg/mL): 1.9e+06 mL⁻¹
- Number of CEM cells (CEM cells; Day 3, 500 μg/mL): 2.1e+06 mL⁻¹ and 1.5e+06 mL⁻¹
- Number of CEM cells (CEM cells; Day 3, 1000 μg/mL): 2e+06 mL⁻¹ and 2.7e+06 mL⁻¹
- inhibition of RT (RT of the NDK virus; 0.6 μg/mL): 11%
- inhibition of RT (RT of the NDK virus; 0.8 μg/mL): 18%
- inhibition of RT (RT of the PIC CH virus; 0.6 μg/mL): does not produce any inhibition at all
- inhibition of RT (RT of the PIC CH virus; 0.8 μg/mL): still does not induce any inhibition
- Number of Syncitia in the Culture (wells), J3 (NDK virus; After infection): −
- Number of Syncitia in the Culture (wells), J4 (NDK virus; After infection): − and +
- Number of Syncitia in the Culture (wells), J5 (NDK virus; After infection): − and ++
- Number of Syncitia in the Culture (wells), J6 (NDK virus; After infection): − and T
- Number of Syncitia in the Culture (wells), J3 (NDK virus; Before infection): −
- Number of Syncitia in the Culture (wells), J4 (NDK virus; Before infection): −
- Number of Syncitia in the Culture (wells), J5 (NDK virus; Before infection): −
- Number of Syncitia in the Culture (wells), J6 (NDK virus; Before infection): −
- Number of Syncitia in the Culture (wells), J3 (NDK virus; [1]): −
- Number of Syncitia in the Culture (wells), J4 (NDK virus; [1]): +
- Number of Syncitia in the Culture (wells), J5 (NDK virus; [1]): ++
- Number of Syncitia in the Culture (wells), J6 (NDK virus; [1]): T
- Number of Syncitia in the Culture (wells), J3 (NDK virus; During infection): −
- Number of Syncitia in the Culture (wells), J4 (NDK virus; During infection): − and (+)
- Number of Syncitia in the Culture (wells), J5 (NDK virus; During infection): − and ++
- Number of Syncitia in the Culture (wells), J6 (NDK virus; During infection): ++ and T
- wells inhibited (NDK virus; cells treated before viral infection): 2 wells out of 2 inhibited
- inhibition of RT (RT of the UG92029 virus; 2.5 μg/mL): 6%
- inhibition of RT (RT of the UG92029 virus; 3 μg/mL): 8%
